Experimental data as given in PMC4980623 (2016).

Assays:
[1] = tested on: Hairpin DNA (5'-biotin, SPR) (DNA, hairpin) TTGGCCAATGTTTGGCCAA; test: SPR
[2] = tested on: c-myc (pu27) (DNA, G4) TGGGGAGGGTGGGGAGGGTGGGGAAGG; test: FRET melting; details: K+ (100 mM; K+ and Na+ swapped elsewhere in the source); various concentrations
[3] = tested on: HTG22 (FRET, FAM/TAMRA) (DNA, G4) AGGGTTAGGGTTAGGGTTAGGG; test: FRET melting; details: 20 μM compound, DNA:drug 1:10
[4] = tested on: HTG22 (DNA, G4) AGGGTTAGGGTTAGGGTTAGGG; test: UV-vis absorption titration; details: K+ (100 mM; K+ and Na+ swapped elsewhere in the source), 15 μM compound, 0-60 μM DNA, Tris-HCl
[5] = tested on: Hairpin DNA (DNA, hairpin) TTGGCCAATGTTTGGCCAA; test: UV melting, 260 nm; details: 100 mM KCl; DNA:drug 1:10, 3 μM DNA; 20 mM cacodylic acid buffer, pH 7.3
[6] = tested on: HTG22 (5'-biotin, SPR) (DNA, G4) AGGGTTAGGGTTAGGGTTAGGG; test: SPR kinetics, bivalent ligand model; details: K+ (100 mM; K+ and Na+ swapped elsewhere in the source), stronger of two sites
[7] = tested on: c-kit 1 (DNA, G4) GGGAGGGCGCTGGGAGGAGGG; test: FRET melting; details: various concentrations
[8] = tested on: HTG22 (DNA, G4) AGGGTTAGGGTTAGGGTTAGGG; test: CD titration, 285 nm; details: K+ (100 mM; K+ and Na+ swapped elsewhere in the source); 5 μM DNA, Tris-HCl
[9] = K+ (100 mM; K+ and Na+ swapped elsewhere in the source)
[10] = Na+ (100 mM; K+ and Na+ swapped elsewhere in the source)

| Ka [1] | binding [2] | Delta Tm [3, 9] | Delta Tm [3, 10] | binding ([4]; 16.41% hypochromicity, 3 nm red shift) | Delta Tm [5] | Ka2 ([6]; Ka1 1.65 × 10^5) | binding [7, 9] | binding [7, 10] | binding [8] | binding ([4]; 16.89% hypochromicity, 1 nm red shift) | Ka2 ([6]; Ka1 2.82 × 10^5) | SMILES |
| --- | --- | --- | --- | --- | --- | --- | --- | --- | --- | --- | --- | --- |
| 60000 M⁻¹ | no | 5.85 °C | 0.55 °C | yes | 0.03 °C | 169000 M⁻¹ | yes | no | yes | – | – | CN1CCN(Cc2nc3ccc4c(c3[nH]2)C(=O)c2ccccc2C4=O)CC1 |
| 40000 M⁻¹ | no | 8.04 °C | 1.00 °C | – | 0.10 °C | – | yes | no | yes | yes | 384000 M⁻¹ | C[N+]1(C)CCN(Cc2nc3ccc4c(c3[nH]2)C(=O)c2ccccc2C4=O)CC1 |
